The text below walks through data of paper PMC10368877, “Acid-sensing ion channel blocker diminazene facilitates proton-induced excitation of afferent nerves in a similar manner that Na^+/H^+ exchanger blockers do” (Frontiers in Cellular Neuroscience, 2023).

For this assay, the system named is T1, acid-sensing ion channels (native ASICs of mouse DRG neurons; subunit not identified).
T1 construct: native channels in primary cultured mouse DRG neurons
The experiment in a line: whole-cell patch clamp, ASIC currents evoked by pH drop […] to […] at -60 mV. The assay is classed as cell-based. On the technique in general: In patch-clamp work, channel activity is measured electrically.

What is called IC50 is the midpoint of a concentration-inhibition curve. Lower therefore signals greater potency in that assay. As for `N=C(N)c1ccc(/N=N/Nc2ccc(C(=N)N)cc2)cc1` [diminazene], half-maximal inhibition (IC50) was put at 16.9 ± 4.4 µM.
